Key:
Assay type in all cases: cell-based
Candida krusei (026) = assay: L-proline-aminopeptidase activity on gelled medium, Example 6; details: 0.3 g/l, 24 hours
Protocol: (§1) A gelled medium comprising L-prolyl-9-(4-amino-phenyl)acridine (hereinafter referred to as L-Pro-4-APA) is prepared as follows: 45 g of Sabouraud agar are added to 1 liter of distilled water and then autoclaved. This reaction medium comprises 0.3 g/l of L-Pro-APA also introduced by means of a stock solution in DMSO.
(§2) Microorganisms derived from the applicant's collection were seeded onto this medium, by delimitation as three dials, using a suspension of 0.5 McFarland. The dishes were incubated at 37° C. for 24 hours. The colonies formed were examined visually after incubation for 24 hours. The color of these colonies was noted before and after the addition of a drop of acetic acid, hereinafter referred to as GAA (glacial acetic acid).

[1] = test system: Candida parapsilosis (040); assay: as above; details: 0.3 g/l, 24 hours
Protocol: as §1, §2

Candida albicans (138) = assay: as above; details: 0.3 g/l, 24 hours
Protocol: as §1, §2

Candida glabrata (051) = assay: as above; details: 0.3 g/l, 24 hours
Protocol: as §1, §2

[2] = test system: Candida guilliermondii (046); assay: as above; details: 0.3 g/l, 24 hours
Protocol: as §1, §2

Candida lusitaniae (045) = assay: as above; details: 0.3 g/l, 24 hours
Protocol: as §1, §2

Pseudomonas putida (028) = assay: β-alanine-aminopeptidase activity on gelled medium, Example 5; details: 0.3 g/l
Protocol: (§3) A gelled medium comprising 300 mg/l of β-Ala-4-AP-10-MA is prepared as follows: 46.37 g of Columbia agar are added to 1 liter of distilled water and then autoclaved, and the substrate is then introduced by means of a stock solution in DMSO. Microorganisms derived from the applicant's collection were seeded onto the medium, by delimitation as three dials, using a suspension of 0.5 McFarland. The dishes were incubated at 37° C. for 48 hours. The colonies formed were examined visually after incubation for 24 and 48 hours. The color of these colonies and also the intensity of this color were noted.

[3] = test system: Pseudomonas aeruginosa (052); assay: as above; details: 0.3 g/l
Protocol: as §3

[4] = test system: Pseudomonas aeruginosa (165); assay: as above; details: 0.3 g/l
Protocol: as §3

Escherichia coli (032) = assay: as above; details: 0.3 g/l
Protocol: as §3

[5] = test system: Pseudomonas fluorescens (016); assay: as above; details: 0.3 g/l
Protocol: as §3

[6] = test system: Pseudomonas stutzeri (073); assay: as above; details: 0.3 g/l
Protocol: as §3

[7] = test system: Klebsiella pneumoniae (023); assay: as above; details: 0.3 g/l
Protocol: as §3

[8] = test system: Burkholderia cepacia (004); assay: as above; details: 0.3 g/l
Protocol: as §3

[9] = test system: Acinetobacter calcoaceticus (034); assay: as above; details: 0.3 g/l
Protocol: as §3

In the case of `O=C(Nc1ccc(-c2c3ccccc3nc3ccccc23)cc1)[C@@H]1CCCN1` [L-Pro-4-APA, L-Prolyl-9-(4-aminophenyl)acridine], the Color (Candida krusei (026); after GAA) is reported as “yellow”, the Intensity (Candida krusei (026); after GAA) is reported as 3 and the Color (Candida krusei (026); before GAA) is reported as “yellow”. The Intensity (Candida krusei (026); before GAA) was 1, the Color ([1]; after GAA) was “yellow” and the Intensity ([1]; after GAA) was 2. The Color ([1]; before GAA) was “white”, the Color (Candida albicans (138); after GAA) was “yellow” and the Intensity (Candida albicans (138); after GAA) was 3. For the same compound, the Color (Candida albicans (138); before GAA) was “yellow”, the Intensity (Candida albicans (138); before GAA) was 2 and the Color (Candida glabrata (051); after GAA) was “yellow”. For the same compound, the Intensity (Candida glabrata (051); after GAA) was 3, the Color (Candida glabrata (051); before GAA) was “yellow” and the Intensity (Candida glabrata (051); before GAA) was 2. For the same compound, the Color ([2]; after GAA) was “no growth”, the Color ([2]; before GAA) was “no growth” and the Color (Candida lusitaniae (045); after GAA) was “no growth”. For the same compound, the Color (Candida lusitaniae (045); before GAA) was “no growth”.
In the case of `C[n+]1c2ccccc2c(-c2ccc(NC(=O)CCN)cc2)c2ccccc21.[Cl-]` [β-Ala-4-AP-10-MA, β-alanyl-9-(4-aminophenyl)-10-methylacridinium chloride], the Color (Pseudomonas putida (028); 24 H) is reported as “colorless”, the Color (Pseudomonas putida (028); 48 h) is reported as “colorless” and the Color ([3]; 24 H) is reported as “orange”. The Intensity ([3]; 24 H) was 2, the Color ([3]; 48 h) was “orange” and the Intensity ([3]; 48 h) was 3. The Color ([4]; 24 H) was “orange”, the Intensity ([4]; 24 H) was 1.5 and the Color ([4]; 48 h) was “orange”. The Intensity ([4]; 48 h) was 3, the Color (Escherichia coli (032); 24 H) was “colorless” and the Color (Escherichia coli (032); 48 h) was “colorless”. For the same compound, the Color ([5]; 24 H) was “inhibited”, the Color ([5]; 48 h) was “colorless” and the Color ([6]; 24 H) was “inhibited”. For the same compound, the Color ([6]; 48 h) was “colorless”, the Color ([7]; 24 H) was “colorless” and the Color ([7]; 48 h) was “colorless”. For the same compound, the Color ([8]; 24 H) was “colorless”, the Color ([8]; 48 h) was “colorless” and the Color ([9]; 24 H) was “colorless”. For the same compound, the Color ([9]; 48 h) was “colorless”.
